Assay results taken from the NIST ThermoML archive (doi:10.1016/j.jct.2016.07.012).
± gives the expanded uncertainty stated by the source.

Experiment: molar heat capacity at constant pressure
Details: 101.33 kPa, Small (less than 1 g) adiabatic calorimetry

CCCCn1cc[n+](C)c1.F[P-](F)(F)(F)(F)F [1-butyl-3-methylimidazolium hexafluorophosphate]
Details	molar heat capacity at constant pressure [J/K/mol]
125.32 K, Metastable crystal	185.9 ± 1
127.15 K, Metastable crystal	191.2 ± 1
127.23 K, Metastable crystal	188.2 ± 1
129.05 K, Metastable crystal	193.4 ± 1
129.15 K, Metastable crystal	190.5 ± 1
130.95 K, Metastable crystal	195.6 ± 1
131.06 K, Metastable crystal	192.8 ± 1
132.85 K, Metastable crystal	197.9 ± 1.1
132.97 K, Metastable crystal	195.1 ± 1
134.75 K, Metastable crystal	200.2 ± 1.1
134.88 K, Metastable crystal	197.5 ± 1.1
136.65 K, Metastable crystal	202.5 ± 1.1
136.8 K, Metastable crystal	199.9 ± 1.1
138.55 K, Metastable crystal	204.9 ± 1.1
138.71 K, Metastable crystal	202.4 ± 1.1
140.45 K, Metastable crystal	207.2 ± 1.1
140.62 K, Metastable crystal	204.8 ± 1.1
142.35 K, Metastable crystal	209.7 ± 1.1
142.52 K, Metastable crystal	207.4 ± 1.1
144.24 K, Metastable crystal	212.3 ± 1.1
144.42 K, Metastable crystal	209.9 ± 1.1
146.13 K, Metastable crystal	214.9 ± 1.1
146.33 K, Metastable crystal	212.5 ± 1.1
148.01 K, Metastable crystal	217.6 ± 1.2
148.23 K, Metastable crystal	215.1 ± 1.1
149.9 K, Metastable crystal	220.4 ± 1.2
150.13 K, Metastable crystal	217.7 ± 1.2
151.78 K, Metastable crystal	223.4 ± 1.2
152.02 K, Metastable crystal	220.4 ± 1.2
153.65 K, Metastable crystal	226.5 ± 1.2
153.91 K, Metastable crystal	223.1 ± 1.2
155.52 K, Metastable crystal	229.7 ± 1.2
155.79 K, Metastable crystal	225.9 ± 1.2
157.39 K, Metastable crystal	233.2 ± 1.2
157.67 K, Metastable crystal	228.7 ± 1.2
159.24 K, Metastable crystal	236.9 ± 1.2
159.55 K, Metastable crystal	231.5 ± 1.2
161.09 K, Metastable crystal	241 ± 1.3
161.42 K, Metastable crystal	234.4 ± 1.2
162.93 K, Metastable crystal	245.5 ± 1.3
163.29 K, Metastable crystal	237.3 ± 1.3
164.76 K, Metastable crystal	250.5 ± 1.3
165.15 K, Metastable crystal	240.3 ± 1.3
166.58 K, Metastable crystal	256.4 ± 1.3
167.01 K, Metastable crystal	243.2 ± 1.3
168.38 K, Metastable crystal	263.5 ± 1.4
168.87 K, Metastable crystal	246.3 ± 1.3
170.16 K, Metastable crystal	272.5 ± 1.4
170.71 K, Metastable crystal	249.4 ± 1.3
171.91 K, Metastable crystal	285.3 ± 1.5
172.55 K, Metastable crystal	252.6 ± 1.3
173.61 K, Metastable crystal	306.7 ± 1.7
174.39 K, Metastable crystal	256.1 ± 1.3
175.22 K, Metastable crystal	360.5 ± 2.1
176.22 K, Metastable crystal	258.9 ± 1.4
176.68 K, Metastable crystal	448.8 ± 2.6
178.04 K, Metastable crystal	260.8 ± 1.4
178.27 K, Metastable crystal	265.8 ± 1.4
179.86 K, Metastable crystal	263.5 ± 1.4
180.09 K, Metastable crystal	261.1 ± 1.4
181.68 K, Metastable crystal	266.1 ± 1.4
181.91 K, Metastable crystal	261.4 ± 1.4
183.5 K, Metastable crystal	268.6 ± 1.4
183.75 K, Metastable crystal	262.7 ± 1.4
185.31 K, Metastable crystal	270.9 ± 1.4
185.58 K, Metastable crystal	264.6 ± 1.4
187.12 K, Metastable crystal	273 ± 1.4
187.4 K, Metastable crystal	266.8 ± 1.4
188.92 K, Metastable crystal	274.8 ± 1.4
189.22 K, Metastable crystal	269.2 ± 1.4
190.72 K, Metastable crystal	276.4 ± 1.4
191.04 K, Metastable crystal	271.8 ± 1.4
192.53 K, Metastable crystal	277.7 ± 1.4
192.86 K, Metastable crystal	274.6 ± 1.4
194.33 K, Metastable crystal	278.7 ± 1.5
194.66 K, Metastable crystal	277.6 ± 1.4
196.13 K, Metastable crystal	279.3 ± 1.5
196.47 K, Metastable crystal	280.8 ± 1.5
197.94 K, Metastable crystal	279.8 ± 1.5
198.27 K, Metastable crystal	284.1 ± 1.5
199.74 K, Metastable crystal	280 ± 1.5
200.05 K, Metastable crystal	287.7 ± 1.5
201.61 K, Metastable crystal	280.4 ± 1.5
201.89 K, Metastable crystal	291.8 ± 1.5
203.54 K, Metastable crystal	280.7 ± 1.5
203.78 K, Metastable crystal	296.2 ± 1.5
205.47 K, Metastable crystal	281 ± 1.5
205.65 K, Metastable crystal	301.3 ± 1.6
207.4 K, Metastable crystal	281.3 ± 1.5
207.51 K, Metastable crystal	306.9 ± 1.6
209.34 K, Metastable crystal	281.8 ± 1.5
209.36 K, Metastable crystal	313.5 ± 1.6
211.19 K, Metastable crystal	322.6 ± 1.7
211.28 K, Metastable crystal	282.5 ± 1.5
213 K, Metastable crystal	333.5 ± 1.7
213.22 K, Metastable crystal	283.4 ± 1.5
214.77 K, Metastable crystal	351.9 ± 1.8
215.16 K, Metastable crystal	284.4 ± 1.5
216.47 K, Metastable crystal	395.3 ± 2.1
217.1 K, Metastable crystal	285.1 ± 1.5
218.22 K, Metastable crystal	317.7 ± 1.7
219.04 K, Metastable crystal	285.7 ± 1.5
220.12 K, Metastable crystal	285.9 ± 1.5
220.98 K, Metastable crystal	286.7 ± 1.5
222.07 K, Metastable crystal	286.7 ± 1.5
222.93 K, Metastable crystal	287.8 ± 1.5
224.04 K, Metastable crystal	287.5 ± 1.5
224.86 K, Metastable crystal	288.7 ± 1.5
226.9 K, Metastable crystal	290 ± 1.5
228.84 K, Metastable crystal	291.1 ± 1.5
230.78 K, Metastable crystal	292 ± 1.5
232.72 K, Metastable crystal	293 ± 1.5
234.67 K, Metastable crystal	294.1 ± 1.5
236.61 K, Metastable crystal	295.2 ± 1.5
238.55 K, Metastable crystal	296.3 ± 1.5
240.49 K, Metastable crystal	298.3 ± 1.5
242.43 K, Metastable crystal	299.6 ± 1.6
286.27 K, Liquid	400.3 ± 2
287.99 K, Liquid	401.2 ± 2.1
289.7 K, Liquid	402.1 ± 2.1
291.41 K, Liquid	403 ± 2.1
293.12 K, Liquid	404 ± 2.1
294.83 K, Liquid	405.1 ± 2.1
296.54 K, Liquid	405.8 ± 2.1
298.25 K, Liquid	406.9 ± 2.1
299.96 K, Liquid	407.8 ± 2.1
301.71 K, Liquid	409.1 ± 2.1
303.52 K, Liquid	410.1 ± 2.1
305.33 K, Liquid	411 ± 2.1
307.14 K, Liquid	412 ± 2.1
308.95 K, Liquid	412.9 ± 2.1
310.75 K, Liquid	414 ± 2.1
312.56 K, Liquid	415.1 ± 2.1
314.36 K, Liquid	415.8 ± 2.1
316.16 K, Liquid	417 ± 2.1
317.97 K, Liquid	418 ± 2.1
319.77 K, Liquid	419.2 ± 2.1
321.57 K, Liquid	420.1 ± 2.1
323.38 K, Liquid	421 ± 2.1
325.18 K, Liquid	422 ± 2.2
326.98 K, Liquid	423.2 ± 2.2
328.78 K, Liquid	423.9 ± 2.2
330.59 K, Liquid	425 ± 2.2
332.39 K, Liquid	426.1 ± 2.2
334.19 K, Liquid	427.2 ± 2.2
335.99 K, Liquid	428.2 ± 2.2
337.79 K, Liquid	429.2 ± 2.2
339.59 K, Liquid	430.2 ± 2.2
341.39 K, Liquid	431.1 ± 2.2
343.18 K, Liquid	432.1 ± 2.2
344.98 K, Liquid	433.1 ± 2.2
346.78 K, Liquid	434.1 ± 2.2
348.58 K, Liquid	435.2 ± 2.2
350.38 K, Liquid	436.3 ± 2.2
352.18 K, Liquid	437.4 ± 2.2
353.99 K, Liquid	438.3 ± 2.2
355.79 K, Liquid	439.3 ± 2.2
357.59 K, Liquid	440.3 ± 2.2
359.4 K, Liquid	441.1 ± 2.2
361.2 K, Liquid	442.4 ± 2.3
363 K, Liquid	443.4 ± 2.3
364.81 K, Liquid	444.5 ± 2.3
366.61 K, Liquid	445.6 ± 2.3
368.41 K, Liquid	446.3 ± 2.3
